In patent publication US20090239896A1, “AZAINDOLE COMPOUNDS AND USE THEREOF AS PHOSPHOLIPASE-A2 INHIBITORS” (priority 2005, published 2009):
pIC50: −log10 of the molar value.

Key:
[1] = target: human PLA2 IB enzyme (Homo sapiens, UniProt P04054); settings: pyrene substrate release from vesicles; Singer, Ghomashchi et al. 2002; read-out: IC50 value versus the human PLA2 IB enzyme; cited from earlier work
[2] = test system: Caco-2 monolayers; test: in-vitro Caco-2 permeability study (Example 6B); type: in vitro ADME, human
Protocol: The culture medium was refreshed every 48 hours.
Papp=(dQ/dt)X(1/C0)X(1/A)

[3] = stability at low pH; type: physicochemical; settings: predicted to survive passage through the stomach
[4] = target: mouse PLA2 IB enzyme (Mus musculus, UniProt Q9Z0Y2); settings: pyrene substrate release from vesicles; Singer, Ghomashchi et al. 2002; read-out: IC50 value versus the mouse PLA2 IB enzyme; cited from earlier work
[5] = test system: C57BL/6 wild-type mice on high fat/high sucrose diabetogenic diet; test: in-vivo evaluation in mice on high fat/high sucrose diabetogenic diet (Example 5); design: species or system mouse; settings: for fasting glucose levels: low dose (25 mg/kg/day)
Protocol: Briefly, four groups were set up, each having six mice. Three of the groups included six wild-type PLA2 (+/+) mice in each group (eighteen mice total), and one of the groups included six genetically deficient PLA2 (−/−) mice. One of the wild-type groups was used as a wild-type control group, and was not treated with ILY-4001. The other two wild-type groups were treated with ILY-4001—one group at a lower dose (indicated as “L” in Table 1) of 25 mg/kg/day, and the other at a higher dose (indicated as “H” in Table 1) of 90 mg/kg/day. The group comprising the PLA2 (−/−) mice was used as a positive control group.
The experimental protocol used in this study was as follows. The four groups of mice, including wild type and isogenic PLA2 (−/−) C57BL/J mice were acclimated for three days on a low fat/low carbohydrate diet. After the three day acclimation phase, the animals were ? and serum samples taken to establish baseline plasma cholesterol, triglyceride, and glucose levels, along with baseline body weight. The mice in each of the treatment groups were then fed a high fat/high sucrose diabetogenic diet (Research Diets D12331). 1000 g of the high fat/high sucrose D12331 diet was composed of casein (228 g), DL-methionine (2 g), maltodextrin 10 (170 g), sucrose (175 g), soybean oil (25 g), hydrogenated coconut oil (333.5 g), mineral mix S10001 (40 g), sodium bicarbonate (10.5 g), potassium citrate (4 g), vitamin mix V10001 (10 g), and choline bitartrate (2 g). This diet was supplemented with ILY-4001 treatments such that the average daily dose of the compound ingested by a 25 g mouse was: 0 mg/kg/day (wild-type control group and PLA2 (−/−) control group); 25 mg/kg/day (low-dose wild-type treatment group), or 90 mg/kg/day (high-dose wild-type treatment group). The animals were maintained on the high fat/high sucrose diet, with the designated ILY-4001 supplementation, for a period of ten weeks.
Body weight measurements were taken for all animals in all treatment and control groups at the beginning of the treatment period and at 4 weeks and 10 weeks after initiation of the study. (See Example 5A). Blood draws were also taken at the beginning of the treatment period (baseline) and at 4 weeks and 10 weeks after initiation of the study, in order to determine fasting glucose (See Example 5B). Cholesterol and triglyceride levels were determined from blood draws taken at the beginning of the treatment (baseline) and at ten weeks. (See Example 5C).
In the study generally described above in Example 5, body weight measurements were taken for all animals in all treatment and control groups at the beginning of the treatment period and at 4 weeks and 10 weeks after initiation of the study.
In the study generally described above in Example 5, blood draws were taken at the beginning of the treatment period (baseline) and at 4 weeks and 10 weeks after initiation of the study, in order to determine fasting glucose.
In the study generally described above in Example 5, blood draws were taken at the beginning of the treatment period (baseline) and at 10 weeks after initiation of the study, in order to determine cholesterol and triglyceride levels.

[6] = pharmokinetic study of ILY-4001, IV and oral (Example 6C); type: in vivo, mice; settings: 30 mg/kg oral
Protocol: This example evaluated the bioavailability of ILY-4001 [2-(3-(2-amino-2-oxoacetyl)-1-(biphenyl-2-ylmethyl)-2-methyl-1H-indol-4-yloxy)acetic acid], alternatively referred to herein as methyl indoxam. Specifically, a pharmokinetic study was conducted to determine the fraction of unchanged ILY-4001 in systemic circulation following administration.
Bioavailability was calculated as a ratio of AUC-oral/AUC-intravenous (IV). To determine this ratio, a first set of subject animals were given a measured intravenous (IV) dose of ILY-4001, followed by a determination of ILY-4001 levels in the blood at various time points after administration (e.g., 5 minutes through 24 hours). Another second set of animals was similarly dosed using oral administration, with blood levels of ILY-4001 determined at various time points after administration (e.g., 30 minutes through 24 hours). The level of ILY-4001 in systemic circulation were determined by generally accepted methods (for example as described in Evans, G., A Handbook of Bioanalysis and Drug Metabolism. Boca Raton, CRC Press (2004)). Specifically, […]/mass spectrometry/mass spectrometry (LC/MS/MS) analytical methods were used to quantitate plasma concentrations of ILY-4001 after oral and intravenous administration. Pharmacokinetic parameters that were measured include Cmax, AUC, tmax, t1/2, and F (bioavailability). […]

[7] = low and high doses (25 and 90 mg/kg/day), 10 weeks

Sequence of human PLA2 IB enzyme (P04054 23-148): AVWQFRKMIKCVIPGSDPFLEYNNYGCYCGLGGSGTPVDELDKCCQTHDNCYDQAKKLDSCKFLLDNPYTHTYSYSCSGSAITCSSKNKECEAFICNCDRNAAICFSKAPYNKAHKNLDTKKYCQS
Sequence of mouse PLA2 IB enzyme (Q9Z0Y2 23-146): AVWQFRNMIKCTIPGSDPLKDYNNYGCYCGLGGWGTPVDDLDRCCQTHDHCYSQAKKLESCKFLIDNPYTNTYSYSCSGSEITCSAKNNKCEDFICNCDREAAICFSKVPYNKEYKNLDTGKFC

Row | apparent permeability ([2]; Caco-2) | Molecule | pIC50 [1] | absorption from the GI lumen ([2]; based on Caco-2 assays and pharmokinetic studies) | stability at low pH [3] | pIC50 [4] | body weight gain compared to wild-type control group ([5]; 25 mg/kg/d and 90 mg/kg/d in diet, week 4 and week 10) | plasma levels of cholesterol [5, 7] | plasma levels of triglycerides [5, 7] | fasting glucose levels ([5]; week four) | fasting glucose levels ([5]; week ten) | level of non-absorption from the GI tract into systemic circulation [6]
1 | – | Cc1c(C(=O)C(N)=O)c2c(OCC(=O)O)cccc2n1Cc1ccccc1-c1ccccc1 [ILY-4001, 2-(3-(2-amino-2-oxoacetyl)-1-(biphenyl-2-ylmethyl)-2-methyl-1H-indol-4-yloxy)acetic acid] | ~6.70 | relatively low | stable | ~6.82 | significantly reduced | substantially reduced | substantially reduced | moderately beneficial effect | a beneficial effect was not observed | ~72%
2 | around 2.82×10^−7+/−0.37×10^−7 cm/s | Lucifer Yellow | – | – | – | – | – | – | – | – | – | –
